Laboratory results reported in patent US5474984A, “Horseshoe crab amebocyte lysate factor G activation inhibitor” (priority 1988, dated 1995).

How the values were obtained:
[1] = target: T1, factor G fraction of LAL (Tachypleus tridentatus, UniProt Q27082); assay: Method of measuring the titer of the activity of a factor G activation inhibitor (GI); type: biochemical, T. tridentatus; details: 10 pg factor G activating substance (sample No. 106), 37° C. 30 minutes; 100% inhibition = 100 units
T1 construct: Prepared from horseshoe crab, T. tridentatus; from tissue; host or cells: horseshoe crab amebocyte lysate (LAL), factor G fraction
T1 sequence (Q27082 20-673): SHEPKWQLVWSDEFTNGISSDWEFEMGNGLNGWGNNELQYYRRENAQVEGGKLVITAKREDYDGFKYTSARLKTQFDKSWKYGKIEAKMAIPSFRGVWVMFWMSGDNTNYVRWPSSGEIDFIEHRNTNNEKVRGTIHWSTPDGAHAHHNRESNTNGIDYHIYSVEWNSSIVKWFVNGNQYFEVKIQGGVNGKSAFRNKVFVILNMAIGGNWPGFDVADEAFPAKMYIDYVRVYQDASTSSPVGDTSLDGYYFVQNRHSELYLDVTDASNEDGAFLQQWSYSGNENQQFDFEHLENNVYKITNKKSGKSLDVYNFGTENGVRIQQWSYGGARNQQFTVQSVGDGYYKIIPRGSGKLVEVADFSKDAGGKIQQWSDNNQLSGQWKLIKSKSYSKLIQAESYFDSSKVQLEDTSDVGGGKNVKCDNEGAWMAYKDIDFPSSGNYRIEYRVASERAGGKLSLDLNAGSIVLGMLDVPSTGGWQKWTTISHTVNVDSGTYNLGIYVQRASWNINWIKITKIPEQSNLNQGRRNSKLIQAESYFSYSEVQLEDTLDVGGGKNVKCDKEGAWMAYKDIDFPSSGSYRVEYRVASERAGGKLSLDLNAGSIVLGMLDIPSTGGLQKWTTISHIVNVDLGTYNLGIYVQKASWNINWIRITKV
T1 sequence (Q27083 32-309 partner): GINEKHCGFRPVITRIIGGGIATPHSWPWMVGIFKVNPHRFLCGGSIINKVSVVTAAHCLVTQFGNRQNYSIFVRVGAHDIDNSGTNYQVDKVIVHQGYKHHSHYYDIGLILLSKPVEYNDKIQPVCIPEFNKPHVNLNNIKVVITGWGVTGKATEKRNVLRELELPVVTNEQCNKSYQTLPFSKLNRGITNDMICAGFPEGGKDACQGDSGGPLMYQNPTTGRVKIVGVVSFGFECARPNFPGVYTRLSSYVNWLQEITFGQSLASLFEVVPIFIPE
Description: The factor G activation inhibiting titer was measured by the "method of measuring the titer of the activity of a factor G activation inhibitor" described below and expressed in units/mg.
Method of measuring the titer of the activity of a factor G activation inhibitor (sometimes abbreviated as GI):
Two hundred microliters of the reaction mixture contained the following materials. […]
The above reaction mixture was incubated at 37° C. for 30 minutes, and 0.5 ml each of 0.04% sodium nitrite (0.48M HCl solution), 0.3% ammonium sulfamate, and 0.07% N-(1-naphthyl)ethylenediamine dihydrochloride were successively added, and its color was changed by diazo coupling. The amount of pNA liberated was measured as the absorbance at 545 nm (A545).
The GI activity was calculated from the following equation. [formula]
The amount of GI which inhibited activation of factor G by GA under these conditions to an extent of 100% is defined as 100 units.
A sample which is water-insoluble is used after it is dissolved in 0.3M NaOH, and neutralized with an equal volume of 0.3M HCl.
A GPC fractionated pure sample of the sonicated product of Curdlan which was prepared in Preparation Example 5 (Table 2, sample No. 106 having a molecular weight of 216,000).
Prepared from horseshoe crab, T. tridentatus, inhabiting the coast of Japan in accordance with the method described in T. Obayashi et al., Clin. Chim. Acta, 149, 55-65 (1985).

[2] = target: T2, factor G (Tachypleus tridentatus, UniProt Q27082); assay: Operating mechanism experiment: inhibition of the factor G pathway with varied sequence of addition; type: biochemical, horseshoe crab; details: 5 micrograms inhibitor
T2 construct: prepared from LAL by the method described in T. Obayashi et al; from tissue; host or cells: horseshoe crab amebocyte lysate (LAL), factor G fraction
T2 sequence (Q27082 20-673): T1 sequence (Q27082 20-673)
T2 sequence (Q27083 32-309 partner): T1 sequence (Q27083 32-309 partner)
Description: (§1) A reaction mixture of the following composition was used. Two hundred microliters of the reaction mixture contained 5 micrograms of a factor G activation inhibitor (laminariheptaose; sample No. 10; abbreviated as I), 3 pg of a factor G activating substance (GPC fraction of sonicated Curdlan; sample No. 106; abbreviated as A), 20 microliters of a factor G fraction (abbreviated as G) and 30 microliters of a proclotting enzyme fraction (abbreviated as P) prepared from LAL by the method described in T. Obayashi et al., Clin. Chim. Acta, 149, 55-65 (1985), 20 μmoles of Tris-HCl buffer (pH 8.0), 20 μmoles of MgCl2 and 0.13 μmole of a chromogenic substrate Boc-Leu-Gly-Arg-pNA (abbreviated as S).
(§2) In each of Runs 1 to 5, the sequence of adding the ingredients and the incubating conditions were varied, and the degree of inhibition of the factor G pathway was measured and determined in comparison with a control in which no inhibitor was added.

[3] = tested on: factor G; assay: as above; type: biochemical, horseshoe crab; details: factor G activated by A before inhibitor
Description: as §1, §2

SMILES | Factor G activation inhibiting titer [1] | other results
OC[C@H]1O[C@@H](O[C@@H]2[C@@H](O)[C@H](O[C@@H]3[C@@H](O)[C@H](O[C@@H]4[C@@H](O)[C@H](O[C@H]5[C@H](O)[C@@H](CO)OC(O)[C@@H]5O)O[C@H](CO)[C@H]4O)O[C@H](CO)[C@H]3O)O[C@H](CO)[C@H]2O)[C@H](O)[C@@H](O)[C@@H]1O (stereo partly drawn) [compound 8, Laminaripentaose] | 39,800 units/mg | –
OC[C@H]1O[C@@H](O[C@@H]2[C@@H](O)[C@H](O[C@H]3[C@H](O)[C@@H](CO)OC(O)[C@@H]3O)O[C@H](CO)[C@H]2O)[C@H](O)[C@@H](O)[C@@H]1O (stereo partly drawn) [compound 6, Laminaritriose] | 4,670 units/mg | –
OC[C@H]1O[C@@H](O[C@@H]2[C@@H](O)[C@H](O[C@@H]3[C@@H](O)[C@H](O[C@@H]4[C@@H](O)[C@H](O[C@@H]5[C@@H](O)[C@H](O[C@H]6[C@H](O)[C@@H](CO)OC(O)[C@@H]6O)O[C@H](CO)[C@H]5O)O[C@H](CO)[C@H]4O)O[C@H](CO)[C@H]3O)O[C@H](CO)[C@H]2O)[C@H](O)[C@@H](O)[C@@H]1O (stereo partly drawn) [compound 9, Laminarihexaose] | 55,000 units/mg | –
OC[C@H]1OC(O)[C@H](O)[C@@H](O)[C@@H]1O (stereo partly drawn) [compound 108, Glucose, reference compound] | < 100 units/mg | –
OC[C@H]1O[C@@H](O[C@H]2[C@H](O)[C@@H](CO)OC(O)[C@@H]2O)[C@H](O)[C@@H](O)[C@@H]1O (stereo partly drawn) [compound 5, Laminasiribose] | 214 units/mg | –
OCC1OC(OC2C(O)C(CO)OC(OC3C(O)C(CO)OC(OC4C(O)C(CO)OC(OC5C(O)C(CO)OC(OC6C(O)C(CO)OC(OC7C(O)C(O)OC(CO)C7O)C6O)C5O)C4O)C3O)C2O)C(O)C(O)C1O (stereo not drawn) [compound 10, Laminariheptaose] | 103,000 units/mg | Inhibition rate (%) to the control ([2]; Run 1 (sequence of addition drawing 11), 3 pg activating substance sample No. 106): 100%; Inhibition rate (%) to the control ([2]; Run 2 (sequence drawing 12), 3 pg activating substance): 100%; Inhibition rate (%) to the control ([2]; Run 3 (sequence drawing 13), 3 pg activating substance): 100%; Inhibition rate (%) to the control ([3]; Run 4 (sequence drawing 14)): 1.7%; Inhibition rate (%) to the control ([3]; Run 5 (sequence drawing 15)): 0%
OC[C@H]1O[C@@H](O[C@@H]2[C@@H](O)[C@H](O[C@@H]3[C@@H](O)[C@H](O[C@H]4[C@H](O)[C@@H](CO)OC(O)[C@@H]4O)O[C@H](CO)[C@H]3O)O[C@H](CO)[C@H]2O)[C@H](O)[C@@H](O)[C@@H]1O (stereo partly drawn) [compound 7, Laminaritetraose] | 20,000 units/mg | –
